According to patent US20240252456A1, “ORAL COMPOSITION, SKIN COSMETIC AND HAIR COSMETIC” (MARUZEN PHARMACEUTICALS CO., LTD., priority 2021, published 2024):

What was measured:
SPT mRNA = experiment: Serine palmitoyltransferase (SPT) mRNA expression promotive action test; type: cell-based, human; conditions: NHEK, 24 hours, corrected with GAPDH
Method: Normal human neonatal epidermal keratinocytes (NHEK) were precultured using normal human epidermal keratinocyte growth medium (KGM), and the cells were collected by a trypsin treatment. The collected cells were diluted with KGM to a cell density of 15×10^4 cells/mL, then seeded with 2 mL portions in a 6-well plate (30×10^4 cells/well), and cultured overnight under conditions of 37° C. and 5% CO2. After culturing, the medium was replaced with normal human epidermal keratinocyte basal medium (KBM, the above KGM without addition of growth additives (hEGF, BPE, insulin, antibacterial agents, hydrocortisone)), and culturing was further performed for 24 hours.
After culturing for 24 hours, the medium was removed, and 2 mL of the test sample (Sample 1, see Table 16 below for final concentration) dissolved in KBM was added to each well, and culturing was performed under conditions of 37° C. and 5% CO2 for 24 hours. As a control, culturing was performed in the same manner using KBM to which no sample was added. After culturing, the medium was removed, total RNA was extracted using ISOGEN II (available from NIPPON GENE CO., LTD.), each RNA amount was measured using a spectrophotometer, and the total RNA was prepared so as to be 150 ng/μL.
For SPT and GAPDH as an internal standard, the expression levels of mRNA were measured using the above total RNA as a template. […]

AGEs = experiment: Advanced glycation end product (AGEs) formation suppressive action test; conditions: type I collagen-coated plate, 0.2M D(−)-ribose, 37° C., 20 days
Method: In a 96-well type I collagen-coated plate (available from AGC Inc.), 100 μL of a mixed solution of 0.2M D(−)-ribose prepared with PBS(−) buffer solution and each of test samples (Samples 1 and 2, see Table 22 below for final concentrations) were added and statically placed at 37° C. for 20 days to form AGEs. In addition, PBS(−) buffer solution only as a negative control and a 0.2M D(−)-ribose solution prepared with PBS(−) buffer solution as a positive control were statically placed in the same manner. After 20 days, the amount of AGEs was measured by the ELISA method using an anti-AGEs antibody (available from TPANS GENIC INC.), and the AGEs formation suppressive action was evaluated. From the obtained results, the AGEs formation suppression rate (%) was calculated using the following equation.
Terms in the equation represent the following respective ones. • A: Absorbance at wavelength 405 nm in negative control • B: Absorbance at wavelength 405 nm in positive control • C: Absorbance at wavelength 405 nm with test sample addition

[1] = test system: Normal human hair follicle dermal papilla cells (HFDPC); experiment: Follicle dermal papilla cell proliferation promotive action test (MTT); type: cell-based; conditions: 100 μmol/L, 4 days
Method: Normal human hair follicle dermal papilla cells (HFDPC, derived from the parietal region of a person) were cultured using follicle dermal papilla cell growth medium (PCGM, available from TOYOBO CO., LTD.) containing 1% FCS and growth additives, and then the cells were collected by a trypsin treatment. The collected cells were diluted to a cell density of 1.0×10^4 cells/mL using Dulbecco's modified Eagle's medium (DMEM) containing 10% FBS, then seeded with 200 μL per well in a collagen-coated 96-well plate, and cultured for 3 days.
After that, the medium was removed, 200 μL of the test sample (Sample 1, see Table 25 below for final concentration) dissolved in serum-free DMEM was added to each well, and culturing was further performed for 4 days. […] After the culturing was completed, the follicle dermal papilla cell proliferation promotive action was measured by MTT assay. […] The absorbance of this extract was measured at 570 nm giving the maximum absorption point of blue formazan. At the same time, the absorbance at a wavelength of 650 nm was measured as turbidity, and the difference between the two was determined as the production amount of blue formazan. From the measurement results, the follicle dermal papilla cell proliferation promotion rate (%) was calculated based on the following equation. […]

Structure (SMILES) | SPT mRNA expression promotion rate (SPT mRNA; 25 μmol/L) [%] | SPT mRNA expression promotion rate (SPT mRNA; 100 μmol/L) [%] | AGEs formation suppression rate (AGEs; 125 μmol/L) [%] | AGEs formation suppression rate (AGEs; 500 μmol/L) [%] | AGEs formation suppression rate (AGEs; 2000 μmol/L) [%] | Follicle dermal papilla cell proliferation promotion rate [1] [%]
O=C(O)CCc1ccc(O)c(O)c1 [Sample 1, 3,4-Dihydroxyhydrocinnamic acid] | 114.6 | 149.9 | 45.7 | 69.4 | 78.4 | 124.8
O=C(O)CCc1ccc(O)cc1 [Sample 2, 3-(4-Hydroxyphenyl)propionic acid] | – | – | – | – | 13.3 | –
